From patent US10137170B2, “Lipidated incretin receptor ligand human immunoglobulin Fc-region fusion polypeptides” (INDIANA UNIVERSITY RESEARCH AND TECHNOLOGY CORPORATION, priority 2013, dated 2018)
Starred links: 1 amine or outer side, 2 acyl side, 3 side chain; linkers in the order of their positions; H or OH if unused. Positions of bridges follow the written chain, without caps; N, C: chain ends. Non-standard residues stand in square brackets, D forms with d. Groups on a side chain read outwards from the residue. Chains are numbered I, II in the order given. *: point of attachment. γGlu = O=C(O)[C@H](CCC(=O)[*:2])N[*:1]; Desaminotyrosyl = O=C(CCc1ccc(O)cc1)*; Palmitoyl = CCCCCCCCCCCCCCCC(=O)*; X1 = O=C(C[*:1])[*:2]; Aib = CC(C)(N)C(=O)O

Assays:
Type in all cases: cell-based
human GCG-R = target: T1, human GCG-R (Homo sapiens, UniProt P47871); test: Cyclic AMP (cAMP) assay, cell-suspension format, stably expressed human GCG-receptor in CHO cells; details: for EC50: Table 1, cAMP, CHO cells
T1 construct: host or cells: CHO-K1 (cAMP Hunter)
Experimental: (§1) On the day of the experiment, the medium was removed and the cell monolayer was washed with 10 mL phosphate buffered saline (PBS) per flask. […] The flask was gently tapped and the cell suspension was pooled. The cell suspension was centrifuged for 3 min. at 150×g, and supernatant was discarded. The cell pellet was resuspended in assay buffer and cell number determined. Cell concentration was adjusted to 2×10^5 cells/mL. A 25 μL cell suspension aliquot was transferred into each well of a 96-well plate using Multi-drop dispenser (5000 cells/well). A 25 μL aliquot of diluted compound was transferred to the cell plate and the cell suspension incubated for 30 min. at RT on a plate shaker (450 rpm). The reaction was stopped by addition of lysis buffer and cAMP generated was determined using the cAMP dynamic 2 kit from Cisbio following the manufacturer's instructions. The time resolved fluorescence signal was determined using an EnVision (PerkinElmer). Cyclic AMP production was calculated based on standard curve run in parallel for every experiment. Data were analyzed using Excel Fit software.

GIP-R = target: T2, GIP-R (Homo sapiens, UniProt P48546); test: Cyclic AMP (cAMP) assay, cell-suspension format, stably expressed human GIP-receptor in CHO cells
T2 construct: host or cells: CHO-K1 (cAMP Hunter)
T2 sequence (P48546 22-466): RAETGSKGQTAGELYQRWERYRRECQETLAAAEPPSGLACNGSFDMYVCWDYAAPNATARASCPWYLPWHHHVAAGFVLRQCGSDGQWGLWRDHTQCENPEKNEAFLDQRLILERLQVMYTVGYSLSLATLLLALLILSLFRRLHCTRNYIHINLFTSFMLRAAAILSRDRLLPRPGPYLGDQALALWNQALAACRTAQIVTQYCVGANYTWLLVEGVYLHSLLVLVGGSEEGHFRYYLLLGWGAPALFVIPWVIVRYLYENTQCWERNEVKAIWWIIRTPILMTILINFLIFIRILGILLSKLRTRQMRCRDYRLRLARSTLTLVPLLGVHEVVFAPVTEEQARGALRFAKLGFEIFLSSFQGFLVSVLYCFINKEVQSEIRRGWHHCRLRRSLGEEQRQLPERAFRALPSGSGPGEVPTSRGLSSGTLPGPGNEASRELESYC
Experimental: as §1

human GLP-R = target: T3, human GLP-R (Homo sapiens, UniProt P43220); test: Cyclic AMP (cAMP) assay, cell-suspension format, stably expressed human GLP-1-receptor in CHO cells
T3 construct: host or cells: CHO-K1 (cAMP Hunter)
Experimental: as §1

[1] = Table 1, relative to GCG maximum
[2] = Table 1, relative to GIP maximum
[3] = Table 1, relative to GLP-1 maximum

T1 sequence (P47871 26-477): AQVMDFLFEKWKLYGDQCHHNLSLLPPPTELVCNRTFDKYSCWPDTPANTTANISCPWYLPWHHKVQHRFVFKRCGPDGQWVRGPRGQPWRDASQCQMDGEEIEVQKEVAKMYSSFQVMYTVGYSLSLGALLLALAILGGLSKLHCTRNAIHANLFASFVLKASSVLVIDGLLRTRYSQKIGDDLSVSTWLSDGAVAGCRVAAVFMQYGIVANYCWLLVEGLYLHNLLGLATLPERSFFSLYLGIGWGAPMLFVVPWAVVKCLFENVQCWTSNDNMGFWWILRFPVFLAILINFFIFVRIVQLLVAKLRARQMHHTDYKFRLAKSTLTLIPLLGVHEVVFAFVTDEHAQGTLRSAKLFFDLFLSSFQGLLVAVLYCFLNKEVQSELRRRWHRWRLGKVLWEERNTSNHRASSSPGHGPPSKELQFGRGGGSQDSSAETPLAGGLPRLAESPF
T3 sequence (P43220 24-463): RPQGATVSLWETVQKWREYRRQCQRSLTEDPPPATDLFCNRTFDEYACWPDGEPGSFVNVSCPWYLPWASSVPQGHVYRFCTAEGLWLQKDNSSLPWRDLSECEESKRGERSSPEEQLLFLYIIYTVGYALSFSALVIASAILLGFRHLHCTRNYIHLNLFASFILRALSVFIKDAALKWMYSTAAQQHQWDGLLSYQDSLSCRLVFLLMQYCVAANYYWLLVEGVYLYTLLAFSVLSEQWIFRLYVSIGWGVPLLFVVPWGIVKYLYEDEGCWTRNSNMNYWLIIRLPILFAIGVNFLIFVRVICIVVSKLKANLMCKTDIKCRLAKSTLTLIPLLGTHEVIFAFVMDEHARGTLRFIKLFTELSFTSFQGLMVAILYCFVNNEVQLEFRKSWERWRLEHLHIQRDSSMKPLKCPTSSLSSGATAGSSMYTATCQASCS

Row | Substance | EC50 (human GCG-R) [nM] | human GCG-R % max GCG (human GCG-R; [1]) [%] | EC50 (GIP-R; Table 1, cAMP, CHO cells) [nM] | human GIP-R % max GIP (GIP-R; [2]) [%] | EC50 (human GLP-R; Table 1, cAMP, CHO cells) [nM] | human GLP-R % max GLP-1 (human GLP-R; [3]) [%] | human GCG-R % max GCG (human GCG-R; comparative table) [%] | human GIP-R % max GIP (GIP-R; comparative table) [%] | human GLP-R % max GLP-1 (human GLP-R; comparative table) [%] | EC50 (GIP-R; comparative table) [nM] | EC50 (human GLP-R; comparative table) [nM]
1 | Dulaglutide [reference compound] | > 600 | 1.6 | > 600 | 13.8 | 0.129 | 98.2 |  |  |  |  | 
2 | I: Ac-[dY]ALGTFTSDK([γGlu-Palmitoyl])SKYLDERAAQDFVQWLLEGGPSSGAPPPSC-NH2 / II: GGGLPETGGSGS-OH (linker I:40-II:N via X1) [compound 12] |  |  |  |  |  |  | 100 | 90 | 94 |  | 
3 | I: Ac-[dY]AVGTFTSDK([γGlu-Palmitoyl])SKYLDERAAQDFVQWLLEGGPSSGAPPPSC-NH2 / II: GGGLPETGGSGS-OH (linker I:40-II:N via X1) [compound 13] |  |  |  |  |  |  | 99 | 91 | 73 |  | 
4 | I: Desaminotyrosyl-AEGTFTSDK([γGlu-Palmitoyl])SKYLDERAAQDFVQWLLEGGPSSGAPPPSC-NH2 / II: GGGLPETGGSGS-OH (linker I:39-II:N via X1) [compound 11] |  |  |  |  |  |  | 28 | 83 | 67 |  | 
5 | I: H-Y[Aib]EGTFTSDK([γGlu-γGlu-Palmitoyl])SIYLDKQAA[Aib]EFVNWLLAGGPSSGAPPPSC-NH2 / II: GGGLPETGGSGS-OH (linker I:40-II:N via X1) [compound 9] | 8.86 | 109.0 |  | 90.7 |  | 99.9 | 109 | 100 | 91 | 0.01 | 
6 | I: H-Y[Aib]EGTFTSDK([γGlu-γGlu-Palmitoyl])SIYLDKQAA[Aib]EFVNWLLAGGPSSGAPPPSC-NH2 / II: LPETGGSGS-OH (linker I:40-II:N via X1) [compound 10] |  | 100.2 |  | 86.7 |  | 96.7 | 98 | 97 | 96 | 0.01 | 0.02
